Measured values taken from patent US7772252B2, “Heterocyclic substituted carbonyl derivatives and their use as dopamine D3 receptor ligands” (Aventis Pharmaceuticals Inc., priority 2001, dated 2010).
pKi: −log10 of the molar value.

Target: T1, cloned human dopamine D3 receptors (Homo sapiens, UniProt P35462)
T1 construct: expressed in transfected cells; membrane homogenate
Experiment: [N-Methyl-3H]Spiroperidol binding to cloned human dopamine D3 receptors
Conditions: read-out: D3 Ki
Excerpt: [N-Methyl-^3H]Spiroperidol Binding to Cloned Human Dopamine D3 Receptors
This assay measures the in vitro activity of compounds on cloned human dopamine (D3) receptors and predicts the direct dopamine-blocking properties of putative neuropsychiatric agents at human dopamine D3 receptors.
The D3 gene was isolated from a human striatal cDNA library (Stratagene). The gene was sequenced and sub-cloned into the expression vector RC/RSV (Invitrogen). CHO (Chinese Hamster Ovary) cells were stably transfected with 10 μg of the D3/RSV plasmid using the DOTAP method from Boehringer Mannheim and 72 clones that were G418 resistant were isolated. Using mRNA and binding displacement data a single high expressing clone was identified. This clone was then grown in large batches for the purpose of developing a 96 well format assay.
• 1. One plate (10 cm) with approximately 2-3 million D3 cells per plate is incubated with 1 ml of Trypsin-EDTA at room temperature for ˜2 min or until cells have lifted off plates. Four ml of Ham's F12+10% Fetal Bovine Serum+1% Penicillin/Streptomycin+G418 (400 μg/ml) medium are added to resuspend cells and 1 ml of this is added to each large plate (15 cm) containing 19 ml of the same medium as mentioned above. • 2. The 5 large plates are incubated at 37° C.+5% CO2 for ˜3 days or until the cells are confluent. • 3. After these plates are confluent, they are split into 10 large plates. Medium is aspirated off, 2 ml of Trypsin-EDTA are added to each plate and plates are incubated at RT for 2 min or until cells have lifted off the plate. Eight ml of the F12 medium (same medium as #1 above) are added to each plate (10 ml total) to resuspend the cells and 5 ml are transferred to the 2 new plates containing 15 ml of the F12 media. • 4. The 10 large plates are incubated at 37° C.+5% CO2 for ˜2 days or until the cells are confluent. • 5. The 10 large plates are split into 60 large plates (using Trypsin-EDTA as #3 except 4 ml of F12 medium are added to resuspend cells and 1 ml is aliquoted to 6 new plates containing 19 ml of F12 medium each). • 6. Plates are incubated at 37° C.+5% CO2 for ˜3 days or until cell are confluent. • 7. The 60 large plates are then split into 60 roller bottles (100-150 million cells/bottle). Medium is aspirated off, 2 ml of Trypsin-EDTA are added to each plate and incubated at RT for ˜2 minutes or until cells have lifted off plates. Eight ml of F12 medium are added to each plate to resuspend cells and the entire 10 ml are added to 1 roller bottle containing 90 ml of the F12 medium. • 8. The 60 roller bottles are immediately placed on their sides and transferred to the roller bottle incubator. They are incubated at 37° C.+5% CO2 for ˜3-5 days. Cells are spun at 30-40% motor speed in the Form a incubator. • 9. Medium is poured off and cells are washed 2× in PBS. • 10. Cells are then scraped off in 20 ml of PBS and the bottles are rinsed again with 5 ml of PBS to remove any remaining cells. Cells are stored on ice before membrane preparation. • 11. The yield for 60 D3 roller bottles has varied from ˜260-500 mg. • Note: All tissue culture reagents are from Gibco-BRL. C. Membrane Preparation
The cells are harvested into 250 ml centrifuge tubes with 100 volumes of cold phosphate buffered saline (PBS) and spun down (1200×G for 10 min at 4° C.). The medium is removed and 100 ml PBS are added to each centrifuge tube, cells are resuspened and spun down again. The PBS is removed and the final pellet is homogenized in an appropriate volume of 10% DMSO with a polytron on ice at a medium setting.
A 200 μl sample membrane homogenate is added to 200 μl of 1% SDS, vortexed and allowed to stand for 5 min. Aliquots (25, 50 and 100 μl) of this mixture are assayed in duplicate following the standard Bio-Rad DC protein assay protocol (kit catalog number 500-0112) and using reagent S. Absorbance readings are made at 750 nm (note: the most accurate protein OD readings are between 0.1-0.5 units). […]

T1 sequence (P35462 whole entry): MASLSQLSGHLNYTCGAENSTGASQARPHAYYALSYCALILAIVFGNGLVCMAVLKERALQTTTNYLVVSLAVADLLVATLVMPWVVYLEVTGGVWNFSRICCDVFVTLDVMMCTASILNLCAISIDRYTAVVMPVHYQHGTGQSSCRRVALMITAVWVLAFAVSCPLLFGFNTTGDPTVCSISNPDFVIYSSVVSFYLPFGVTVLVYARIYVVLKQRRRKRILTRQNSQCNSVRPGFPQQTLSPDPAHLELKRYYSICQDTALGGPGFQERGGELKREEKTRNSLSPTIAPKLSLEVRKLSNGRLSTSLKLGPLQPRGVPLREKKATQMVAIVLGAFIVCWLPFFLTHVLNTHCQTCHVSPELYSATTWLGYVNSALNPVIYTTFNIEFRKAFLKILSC

pKi	Structure (SMILES)
7.31	O=C(NCCS(=O)(=O)c1cccc2c(Cl)cccc12)[C@@H]1C[C@H]1CN1CCC(c2noc3ccsc23)CC1 [compound 832528]
9.09	O=C(NCCCN1CCCCC1)[C@@H]1C[C@H]1CN1CCC(c2noc3ccc(C(F)(F)F)cc23)CC1 [A002200838]
8.39	O=C(NC1CCN(C(=O)Nc2ccc(Cl)cc2)CC1)C1CC1CN1CCC(c2noc3ccsc23)CC1 (racemic) [832575ES]
7.64	Cc1cc(C)c(CN2CCN(C(=O)C3CC3CN3CCC(c4noc5ccsc45)CC3)CC2)c(C)c1 (racemic) [compound 832194]
9.85	O=C([C@@H]1C[C@H]1CN1CCC(c2csc3cc(C(F)(F)F)ccc23)CC1)N1CCC[C@@H](Cn2ccnc2)C1 [A002609935, (3S-Imidazol-1-ylmethyl-piperidin-1-yl)-{2R-[4-(6-trifluoromethyl-benzo[b]thiophen-3-yl)-piperidin-1-ylmethyl]-1R-cyclopropyl}-methanone]
8.08	O=C(NC1CCN(Cc2cccnc2)CC1)C1CC1CN1CCC(c2noc3ccsc23)CC1 (racemic) [compound 832394]
8.18	O=C(NC1CCN(Cc2ccc(Oc3ccccc3)cc2)CC1)C1CC1CN1CCC(c2noc3ccsc23)CC1 (racemic) [compound 831820]
7.89	O=C(NC1CCN(C(=O)c2ccc(Cl)c(Cl)c2)CC1)C1CC1CN1CCC(c2noc3ccsc23)CC1 (racemic) [compound 832464]
7.28	O=C(NCCSc1ccc(Cl)cc1)C1CC1CN1CCC(c2noc3ccsc23)CC1 (racemic) [compound 832397]
8.66	Cn1nc(N2CCN(C[C@@H]3C[C@H]3C(=O)NC3CCN(Cc4ccc(F)c(F)c4)CC3)CC2)c2sccc21 [A002436428]
8.23	O=C(NCCC1=CCCCC1)[C@@H]1C[C@H]1CN1CCC(c2noc3ccsc23)CC1 [compound 831215]
6.90	O=C([C@@H]1C[C@H]1CN1CCC(c2noc3cc(C(F)(F)F)ccc23)CC1)N1CCC[C@@H](Cn2ccnc2)C1 [A002287766]
7.03	O=C(C1CC1CN1CCC(c2noc3ccsc23)CC1)N1CCN(S(=O)(=O)c2ccc(-c3ccccc3)cc2)CC1 (racemic) [compound 831836]
8.38	O=C(C1CC1CN1CCC(c2noc3ccsc23)CC1)N1CCN(c2ccc(OCc3ccccc3)cc2)CC1 (racemic) [compound 832059]
7.77	O=C(NCCN1CCCC1)[C@@H]1C[C@H]1CN1CCN(c2csc3cc(C(F)(F)F)ccc23)CC1 [compound 831886]
6.68	O=C(N1CCCC1)C1(CCN2CCC(c3noc4ccsc34)CC2)CC1 [compound 832239]
7.38	O=C([C@@H]1C[C@H]1CN1CCC(c2noc3ccsc23)CC1)N1CCC(CCN2CCCC2)CC1 [compound 833509]
7.35	O=C(C1CC1CN1CCC(c2noc3ccsc23)CC1)N1CCC(c2cc(-c3cccs3)[nH]n2)CC1 (racemic) [compound 831703]
7.55	CC(C)(C)OC(=O)N1CCC(CNC(=O)[C@@H]2C[C@H]2CN2CCC(c3nn(-c4ccccc4)c4ccsc34)CC2)CC1 [A002439262]
7.65	CC1(C)COCN1C(=O)[C@@H]1C[C@H]1CN1CCC(c2noc3ccsc23)CC1 [compound 829464]
7.45	CC(C)(C)c1ccc(CCNC(=O)C2CC2CN2CCC(c3noc4ccsc34)CC2)cc1 (racemic) [compound 832046]
6.47	O=C(NCCCN1CCCCC1)[C@@H]1C[C@H]1CN1CCC(c2noc3ccsc23)CC1 [compound 831045]
8.13	O=C(NC1CCN(Cc2ccc(Cl)c(Cl)c2)CC1)C1CC1CN1CCC(c2noc3ccsc23)CC1 (racemic) [compound 831998]
8.24	O=C(C1CC1CN1CCC(c2noc3ccsc23)CC1)N1CCC(CCN2CCCC2)CC1 (racemic) [compound 832198]
8.73	O=C(NC1CCN(Cc2cc(Cl)ccc2Cl)CC1)C1CC1CN1CCC(c2noc3ccsc23)CC1 (racemic) [compound 832347]
7.26	CN1CCCC1CCNC(=O)[C@@H]1C[C@H]1CN1CCC(c2noc3ccsc23)CC1 (single isomer, unassigned) [compound 832513]
7.37	O=C(NC1CCCC1)C1CC1CN1CCC(c2noc3ccsc23)CC1 (racemic) [compound 829592]
8.91	Cn1nc(C2CCN(C[C@@H]3C[C@H]3C(=O)N3CCC[C@@H](Cn4ccnc4)C3)CC2)c2sccc21 [A002437352]
7.74	O=C(OCc1ccccc1)N1CCN(C(=O)C2CC2CN2CCC(c3noc4ccsc34)CC2)CC1 (racemic) [compound 831453]

More lines, now with the values behind:

Structure (SMILES)	pKi
O=C(NCCN1CCNC1=O)[C@@H]1C[C@H]1CN1CCN(c2csc3cc(C(F)(F)F)ccc23)CC1 [compound 832498]	7.15
CC1CCC(NC(=O)C2CC2CN2CCN(c3onc4c3CCc3ccccc3-4)CC2)CC1 (racemic) [compound 830121]	7.33
O=C(NC1CCN(Cc2cc(F)ccc2F)CC1)[C@@H]1C[C@H]1CN1CCN(c2nn(-c3ccc(OC(F)(F)F)cc3)c3ccsc23)CC1 [A002437082]	8.03
O=C(NCCCn1ccnc1)[C@@H]1C[C@H]1CN1CCC(c2noc3ccc(C(F)(F)F)cc23)CC1 [A002200837]	9.43
O=C(N[C@H]1CC[C@H](O)CC1)[C@@H]1C[C@H]1CN1CCN(c2nn(-c3ccc(OC(F)(F)F)cc3)c3ccsc23)CC1 [compound 833855]	7.91
O=C([C@@H]1C[C@H]1CN1CCC(c2noc3c(C(F)(F)F)cccc23)CC1)N1CCCC(Cn2ccnc2)C1 (mixture of isomers) [compound 833911]	8.90
O=C(NCCCn1ccnc1)[C@@H]1C[C@H]1CN1CCN(c2csc3cc(C(F)(F)F)ccc23)CC1 [compound 831269]	8.39
Cc1ccc(S(=O)(=O)n2nc(N3CCN(C[C@@H]4C[C@H]4C(=O)N[C@H]4CC[C@H](O)CC4)CC3)c3sccc32)cc1 [compound 831951]	7.44
CCOC(=O)c1cc2ccc(N3CCCN(CC4CC4C(=O)NC4CCC(CC)CC4)CC3)cc2s1 (racemic) [compound 830128]	7.16
O=C(NCCCn1cnc2ccccc21)[C@@H]1C[C@H]1CN1CCN(c2nn(-c3ccc(OC(F)(F)F)cc3)c3ccsc23)CC1 [A002243385]	6.18
COc1ccc2c(c1)c(N1CCN(C[C@@H]3C[C@H]3C(=O)N[C@H]3CC[C@H](C)CC3)CC1)nn2C [compound 831768]	9.04
O=C(NCCc1c[nH]c2ccccc12)[C@@H]1C[C@H]1CN1CCN(c2csc3cc(C(F)(F)F)ccc23)CC1 [compound 831271]	8.18
C[C@H]1CC[C@H](NC(=O)[C@@H]2C[C@H]2CN2CCC(c3nn(C4CCCCC4)c4cc(C(F)(F)F)ccc34)CC2)CC1 [compound 833697]	6.98
O=C(NCCCc1ccccc1)[C@@H]1C[C@H]1CN1CCN(c2csc3cc(C(F)(F)F)ccc23)CC1 [compound 831270]	7.75
C[C@H]1CC[C@H](NC(=O)[C@@H]2C[C@H]2CN2CCC(c3nsc4cc(Br)ccc34)CC2)CC1 [compound 833703]	8.72
CN1CCN(CCCNC(=O)[C@@H]2C[C@H]2CN2CCN(c3nn(C)c4ccsc34)CC2)CC1 [A002329040]	6.80
COc1ccc2c(c1)c(N1CCN(C[C@@H]3C[C@H]3C(=O)NC3CCN(Cc4ccc(F)cc4F)CC3)CC1)nn2C [compound 833627]	8.79
COc1ccc2c(c1)c(N1CCN(C[C@@H]3C[C@H]3C(=O)NCC3CCN(C(C)=O)CC3)CC1)nn2C [compound 833197]	7.34
COc1ccc2c(c1)c(N1CCN(C[C@@H]3C[C@H]3C(=O)NC3CCN(Cc4ccc(Cl)cc4)CC3)CC1)nn2C [compound 833834]	9.48
